Measured values as given in PubChem BioAssay AID1963841 (Molecular Pharmacology Branch, DTP, NCI, 2024).
“And” between values parts separate entries of the source, which are not always exact repeats. Equal values may be shown once.

Test system: 439559-082-T-J2-PDC spheroid viability
Test: Anticancer human tumor 439559-082-T-J2-PDC patient-derived colon adenocarcinoma cell line growth inhibition [POLQ]
Conditions: spheroids with HUVEC and MSC; for viability, T/C: stronger effect = lower value
Experimental: Multicellular complex tumor spheroid response to Polymerase (POL) inhibitors (novobiocin, ART-558, RP6685) in combination with a variety of drugs and investigational agents in selected tumor cell lines
The POL inhibitors (novobiocin, ART-558, and RP6685) were evaluated both individually and in combination with standard of care and investigational anticancer small molecules within a complex spheroid model of solid tumors. . Complex spheroids include a stromal component modeled by human endothelial cells (HUVEC) and fibroblasts modeled by human mesenchymal stem cells (MSCs). The concentration ranges selected for each drug and investigational agent were based upon clinically achievable concentrations if the clinical Cmax of the agent was known.
Compounds. The drugs and investigational agents: novobiocin (NSC847541), ART-558 (NSC835418), RP-6685 (NSC848927), peposertib (NSC802822), ceralasertib (NSC780249), elimusertib (NSC800525), camonsertib (NSC841442), AZD-1390 (NSC803789), olaparib (NSC753686), talazoparib (NSC767125), rucaparib (NSC756644), sotorasib (NSC818433), MRTX-1133 (NSC836407), SN-38 (NSC673596), topotecan (NSC609699), epotoside (NSC141540), doxorubicin (NSC123127), gemcitabine (NSC613327), 5-fluorouracil (NSC19893), paclitaxel (NSC125973), vemurafenib (NSC761431), MSA-2 (NSC828583), SN-011 (NSC837082), adavosertib (NSC754352), prexasertib (NSC758257), carboplatin (NSC241240) and oxaliplatin (NSC266046), were obtained from the National Cancer Institute (NCI) Developmental Therapeutics Program Chemical Repository (21). The FDA-approved anticancer drug set is available from the Developmental Therapeutics Program at https://dtp.cancer.gov/organization/dscb/obtaining/. […] The stock solutions were prepared in dimethyl sulfoxide (DMSO, Sigma-Aldrich, St. Louis, MO, cat. D2650), except for the platinum compounds which were prepared in saline (Quality Biological, Gaithersburg, MD, cat. 114-055-101), at 800-fold the tested concentration and stored at -70 degrees C prior to their use. All drugs and investigational agents were tested over a range starting from a high concentration at or near the clinical Cmax and decreasing in half-log increments. If the clinical Cmax for an agent had not been determined, the highest concentration tested was 10 microM, except for SN-38, which was tested at a high concentration of 1 microM.
Cell Culture. All cells were maintained in an incubator at 37 degrees C and 5% CO2 with 95% humidity. The PDC lines were cultured according to standard operating procedures established by the NCI PDMR (https://pdmr.cancer.gov). Table 3 of the manuscript, lists the cell lines along with the number of the three cell types plated to form the mct-spheroids and media for tumor cell growth. After thawing, all PDC lines, except 997537-175-T-J1-PDC and 415267-285-R-J2-PDC, were cultured in Matrigel-coated flasks prepared with a working solution of 1X Ham's F-12 nutrient mix, without supplementation (Thermo Fisher Scientific, cat. 11765054), 100 U/mL penicillin-streptomycin (Thermo Fisher Scientific, cat. 15140122), and 2.5% Matrigel (Corning Inc., Corning, NY, cat. 354248) for the first three passages. The two PDC lines 997537-175-T-J1-PDC and 415267-285-R-J2-PDC were cultured on uncoated flasks. The 857933-349-R-J2-PDC line was cultured in 6C/Colon 1B media containing advanced DMEM/F-12 (Thermo Fisher Scientific, cat. 12634028), 10 mM HEPES (Thermo Fisher Scientific, cat. 15630080), 1X GlutaMAX supplement (Thermo Fisher Scientific, cat. 35050061), 0.1 mg/mL primocin (InvivoGen, San Diego, CA, cat. ant-pm-2), 10% defined fetal bovine serum, heat inactivated (HyClone Laboratories Inc., Logan, UT, cat. SH30070.03HI), 50% L-WRN conditioned media (ATCC, cat. CRL-3276), 1.25 mM N-Acetyl-L-cysteine (Sigma-Aldrich, cat. A9165), 10 mM nicotinamide (Sigma-Aldrich, cat. N0636), 1X B-27 supplement (Thermo Fisher Scientific, cat. 17504044), 1X N-2 supplement (Thermo Fisher Scientific, cat. […]

[1] = curve of first compound, second compound 0.0316 µM
[2] = curve of first compound, second compound 0.1 µM
[3] = curve of first compound, second compound 0.316 µM
[4] = curve of first compound, second compound 1 µM
[5] = curve of first compound, second compound 3.16 µM
[6] = curve of first compound, second compound 10 µM
[7] = second compound 0.0316 µM, first compound 0.0316 µM
[8] = second compound 0.0316 µM, first compound 0.1 µM
[9] = second compound 0.1 µM, first compound 0.0316 µM
[10] = second compound 0.1 µM, first compound 0.1 µM
[11] = second compound 0.316 µM, first compound 0.0316 µM
[12] = second compound 0.316 µM, first compound 0.1 µM
[13] = second compound 1 µM, first compound 0.0316 µM
[14] = second compound 1 µM, first compound 0.1 µM
[15] = second compound 3.16 µM, first compound 0.0316 µM
[16] = second compound 3.16 µM, first compound 0.1 µM
[17] = second compound 10 µM, first compound 0.0316 µM
[18] = second compound 10 µM, first compound 0.1 µM
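Also: spheroids exposed to compounds for seven days before readout.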
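For viability, T/C in this document: 100% = DMSO vehicle control viability.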

## COc1cc(C2c3cc4c(cc3C(OC3OC5COC(C)OC5C(O)C3O)C3COC(=O)C23)OCO4)cc(OC)c1O (stereo unspecified) + COC1C(OC(N)=O)C(O)C(Oc2ccc3c(O)c(NC(=O)c4ccc(O)c(CC=C(C)C)c4)c(=O)oc3c2C)OC1(C)C
[1]
  IC50: > 10 µM
[2]
  IC50: > 10 µM
[3]
  IC50: > 10 µM
[4]
  IC50: > 10 µM
[5]
  IC50: > 10 µM
[6]
  IC50: > 10 µM
[7]
  viability, T/C: 94.7%
[8]
  viability, T/C: 97.2%
Second compound 0.0316 µM, first compound 0.316 µM
  viability, T/C: 102%
Second compound 0.0316 µM, first compound 1 µM
  viability, T/C: 98%
Second compound 0.0316 µM, first compound 3.16 µM
  viability, T/C: 90%
Second compound 0.0316 µM, first compound 10 µM
  viability, T/C: 76.8%
[9]
  viability, T/C: 108%
[10]
  viability, T/C: 108%
Second compound 0.1 µM, first compound 0.316 µM
  viability, T/C: 102%
Second compound 0.1 µM, first compound 1 µM
  viability, T/C: 90.7%
Second compound 0.1 µM, first compound 3.16 µM
  viability, T/C: 92.7%
Second compound 0.1 µM, first compound 10 µM
  viability, T/C: 72.9%
[11]
  viability, T/C: 102%
[12]
  viability, T/C: 105%
Second compound 0.316 µM, first compound 0.316 µM
  viability, T/C: 91%
Second compound 0.316 µM, first compound 1 µM
  viability, T/C: 98.6%
Second compound 0.316 µM, first compound 3.16 µM
  viability, T/C: 89.5%
Second compound 0.316 µM, first compound 10 µM
  viability, T/C: 69.8%
[13]
  viability, T/C: 102%
[14]
  viability, T/C: 94.7%
Second compound 1 µM, first compound 0.316 µM
  viability, T/C: 98.6%
Second compound 1 µM, first compound 1 µM
  viability, T/C: 100%
Second compound 1 µM, first compound 3.16 µM
  viability, T/C: 87.1%
Second compound 1 µM, first compound 10 µM
  viability, T/C: 71.5%
[15]
  viability, T/C: 101%
[16]
  viability, T/C: 101%
Second compound 3.16 µM, first compound 0.316 µM
  viability, T/C: 99.1%
Second compound 3.16 µM, first compound 1 µM
  viability, T/C: 94.5%
Second compound 3.16 µM, first compound 3.16 µM
  viability, T/C: 91.4%
Second compound 3.16 µM, first compound 10 µM
  viability, T/C: 73.1%
[17]
  viability, T/C: 100%
[18]
  viability, T/C: 103%
Second compound 10 µM, first compound 0.316 µM
  viability, T/C: 100%
Second compound 10 µM, first compound 1 µM
  viability, T/C: 92.4%
Second compound 10 µM, first compound 3.16 µM
  viability, T/C: 86.8%
Second compound 10 µM, first compound 10 µM
  viability, T/C: 71.7%

## Cn1ncnc1[C@H]1c2n[nH]c(=O)c3cc(F)cc(c23)N[C@@H]1c1ccc(F)cc1 + COC1C(OC(N)=O)C(O)C(Oc2ccc3c(O)c(NC(=O)c4ccc(O)c(CC=C(C)C)c4)c(=O)oc3c2C)OC1(C)C
[1]
  IC50: > 0.1 µM
[2]
  IC50: > 0.1 µM
[3]
  IC50: > 0.1 µM
[4]
  IC50: > 0.1 µM
[5]
  IC50: > 0.1 µM
[6]
  IC50: > 0.1 µM
Second compound 0.0316 µM, first compound 0.000316 µM
  viability, T/C: 110%
Second compound 0.0316 µM, first compound 0.001 µM
  viability, T/C: 95.8%
Second compound 0.0316 µM, first compound 0.00316 µM
  viability, T/C: 102%
Second compound 0.0316 µM, first compound 0.01 µM
  viability, T/C: 99.8%
[7]
  viability, T/C: 99%
[8]
  viability, T/C: 95.4%
Second compound 0.1 µM, first compound 0.000316 µM
  viability, T/C: 110%
Second compound 0.1 µM, first compound 0.001 µM
  viability, T/C: 108%
Second compound 0.1 µM, first compound 0.00316 µM
  viability, T/C: 109%
Second compound 0.1 µM, first compound 0.01 µM
  viability, T/C: 101%
[9]
  viability, T/C: 99.4%
[10]
  viability, T/C: 91.1%
Second compound 0.316 µM, first compound 0.000316 µM
  viability, T/C: 104%
Second compound 0.316 µM, first compound 0.001 µM
  viability, T/C: 102%
Second compound 0.316 µM, first compound 0.00316 µM
  viability, T/C: 103%
Second compound 0.316 µM, first compound 0.01 µM
  viability, T/C: 102%
[11]
  viability, T/C: 94.1%
[12]
  viability, T/C: 91.1%
Second compound 1 µM, first compound 0.000316 µM
  viability, T/C: 108%
Second compound 1 µM, first compound 0.001 µM
  viability, T/C: 97.1%
Second compound 1 µM, first compound 0.00316 µM
  viability, T/C: 103%
Second compound 1 µM, first compound 0.01 µM
  viability, T/C: 94.2%
[13]
  viability, T/C: 99.1%
[14]
  viability, T/C: 99%
Second compound 3.16 µM, first compound 0.000316 µM
  viability, T/C: 101%
Second compound 3.16 µM, first compound 0.001 µM
  viability, T/C: 99.6%
Second compound 3.16 µM, first compound 0.00316 µM
  viability, T/C: 102%
Second compound 3.16 µM, first compound 0.01 µM
  viability, T/C: 102%
[15]
  viability, T/C: 96.5%
[16]
  viability, T/C: 93.5%
Second compound 10 µM, first compound 0.000316 µM
  viability, T/C: 106%
Second compound 10 µM, first compound 0.001 µM
  viability, T/C: 93.3%
Second compound 10 µM, first compound 0.00316 µM
  viability, T/C: 108%
Second compound 10 µM, first compound 0.01 µM
  viability, T/C: 96%
[17]
  viability, T/C: 104%
[18]
  viability, T/C: 91%

## COc1cc2cc(C(=O)CCC(=O)O)sc2cc1OC
Compound 0.0316 µM
  viability, T/C: 109% and 97.5% and 94.4%
Compound 0.1 µM
  viability, T/C: 93.8% and 82% and 103%
Compound 0.316 µM
  viability, T/C: 89.1% and 98.4% and 98.9%
Compound 1 µM
  viability, T/C: 95.2% and 100% and 99.7%
Compound 3.16 µM
  viability, T/C: 95.2% and 91.9% and 97%
Compound 10 µM
  viability, T/C: 87.7% and 100% (2×)
Curve of compound
  IC50: > 10 µM
